Results: patent US8883963B2 (Cadila Healthcare Limited, priority 2007, dated 2014)

Columns and labels:
[1] = tested on: RIN5F (Rat Insulinoma) cells; experiment: In vitro glucose-dependent insulin secretion (RIN5F cell assay screening protocol); type: cell-based; settings: 16.7 mM glucose load
Human GLP-1 receptor = target: T1, Human GLP-1 receptor (Homo sapiens, UniProt P43220); experiment: In vitro Human GLP-1 R agonist activity (cyclic AMP determination) in CHO/human GLP1R cells; type: cell-based
T1 construct: The full-length cDNA was cloned in pcDNA3.1(+); expressed in transfected cells
T1 sequence (P43220 24-463): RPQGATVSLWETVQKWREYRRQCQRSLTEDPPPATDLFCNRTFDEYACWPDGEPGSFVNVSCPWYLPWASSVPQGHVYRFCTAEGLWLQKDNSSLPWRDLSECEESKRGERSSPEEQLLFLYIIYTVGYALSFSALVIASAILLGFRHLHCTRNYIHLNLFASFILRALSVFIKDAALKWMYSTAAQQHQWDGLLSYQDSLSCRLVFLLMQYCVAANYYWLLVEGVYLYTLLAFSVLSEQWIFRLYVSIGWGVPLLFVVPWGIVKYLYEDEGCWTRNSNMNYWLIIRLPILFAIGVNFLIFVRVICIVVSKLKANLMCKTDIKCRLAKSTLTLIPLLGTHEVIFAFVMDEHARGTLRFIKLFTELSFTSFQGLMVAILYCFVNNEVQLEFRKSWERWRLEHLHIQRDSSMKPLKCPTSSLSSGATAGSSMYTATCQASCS

human glucagon receptor = target: T2, human glucagon receptor (Homo sapiens, UniProt P47871); experiment: In vitro human glucagon antagonist activity (inhibition of cAMP production) in CHO/human glucagon R cells; type: cell-based; settings: with saturated concentration of glucagon peptide
T2 construct: The full-length cDNA was cloned in pcDNA3.1 (Invitrogen); expressed in transfected cells
T2 sequence (P47871 26-477): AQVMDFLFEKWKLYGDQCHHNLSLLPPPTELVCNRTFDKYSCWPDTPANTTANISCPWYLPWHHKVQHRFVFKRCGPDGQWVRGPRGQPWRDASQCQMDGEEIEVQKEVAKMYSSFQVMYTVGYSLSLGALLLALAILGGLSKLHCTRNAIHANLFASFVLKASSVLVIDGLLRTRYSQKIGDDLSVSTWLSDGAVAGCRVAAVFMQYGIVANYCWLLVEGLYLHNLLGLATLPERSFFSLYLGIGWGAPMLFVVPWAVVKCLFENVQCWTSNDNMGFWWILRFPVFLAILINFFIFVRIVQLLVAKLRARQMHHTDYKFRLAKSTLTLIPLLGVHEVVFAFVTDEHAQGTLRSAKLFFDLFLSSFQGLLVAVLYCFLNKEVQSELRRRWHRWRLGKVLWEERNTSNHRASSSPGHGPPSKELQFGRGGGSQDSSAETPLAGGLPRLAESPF

DPP IV = DPP IV (Homo sapiens, UniProt P27487); experiment: Stability against DPP IV enzyme; type: in vitro ADME; settings: 37° C.; for % degradation of peptidomimetics in 24 h when incubated with DPP-IV enzyme: 2 μM peptidomimetic; for half-life at 2 μM: DPP IV enzyme, pH 7.8, 2 μM peptidomimetic, read-out: half-life (t1/2) when incubated with DPP-IV enzyme
Chain of DPP IV (P27487 whole entry, species assumed): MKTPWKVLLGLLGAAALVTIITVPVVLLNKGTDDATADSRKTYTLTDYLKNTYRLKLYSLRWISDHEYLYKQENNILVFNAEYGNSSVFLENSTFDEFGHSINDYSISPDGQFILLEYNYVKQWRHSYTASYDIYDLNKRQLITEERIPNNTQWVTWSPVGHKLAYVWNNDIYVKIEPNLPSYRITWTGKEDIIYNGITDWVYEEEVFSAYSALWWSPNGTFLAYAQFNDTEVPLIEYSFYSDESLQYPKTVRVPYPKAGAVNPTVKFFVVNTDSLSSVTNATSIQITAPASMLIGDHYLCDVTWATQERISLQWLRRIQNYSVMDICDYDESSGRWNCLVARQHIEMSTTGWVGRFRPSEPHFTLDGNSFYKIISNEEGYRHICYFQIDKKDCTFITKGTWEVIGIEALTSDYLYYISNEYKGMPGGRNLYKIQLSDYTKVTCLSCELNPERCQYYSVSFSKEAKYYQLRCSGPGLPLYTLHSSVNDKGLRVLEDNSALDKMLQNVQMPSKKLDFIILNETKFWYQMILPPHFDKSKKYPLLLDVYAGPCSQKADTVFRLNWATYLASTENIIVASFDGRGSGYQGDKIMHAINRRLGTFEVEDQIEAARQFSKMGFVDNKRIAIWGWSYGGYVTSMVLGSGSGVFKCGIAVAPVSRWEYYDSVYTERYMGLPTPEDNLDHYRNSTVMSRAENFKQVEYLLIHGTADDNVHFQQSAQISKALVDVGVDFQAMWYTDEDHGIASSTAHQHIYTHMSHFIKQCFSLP
Description: (§1) Reactions were terminated by the addition of TFA/H2O (15 mL, 10% (v/v)). […] The column was equilibrated with TFA/H20, at a flow rate of 1 mL/min.

[2] = Stability in human plasma; type: in vitro ADME; settings: 2 μM peptidomimetic, pooled human plasma, 37° C.; for half-life at 2 μM: pH 7.8, read-out: half-life (t1/2) when incubated with human plasma
Description: as §1

[3] = Stability in simulated gastric fluid; type: in vitro ADME; settings: 2 μM peptidomimetic, simulated gastric fluid pH 1.5, 37° C.; for half-life at 2 μM: read-out: half-life (t1/2) when incubated with simulated gastric fluid
Description: as §1

[4] = Stability in simulated intestinal fluid; type: in vitro ADME; settings: 2 μM peptidomimetic, simulated intestinal fluid pH 7.5, 37° C.; for half-life at 2 μM: read-out: half-life (t1/2) when incubated with simulated intestinal fluid
Description: as §1

[5] = Stability in liver microsomes; type: in vitro ADME; settings: 2 μM peptidomimetic, human liver microsomes, 37° C.; for half-life at 2 μM: pH 7.8, read-out: half-life (t1/2) when incubated with liver microsomes
Description: as §1

Compound | Insulin secretion ([1]; 0.1 nM test compd.) | Insulin secretion ([1]; 1 nM test compd.) | Insulin secretion ([1]; 10 nM test compd.) | Human GLP-1 R activity (cAMP release), % activity with respect to control (Human GLP-1 receptor; 1 nM test compound) | Human GLP-1 R activity (cAMP release), % activity with respect to control (Human GLP-1 receptor; 10 nM test compound) | Human GLP-1 R activity (cAMP release), % activity with respect to control (Human GLP-1 receptor; 100 nM test compound) | Human GLP-1 R activity (cAMP release), % activity with respect to control (Human GLP-1 receptor; 1 μM test compound) | Human GLP-1 R activity (cAMP release), % activity with respect to control (Human GLP-1 receptor; 10 μM test compound) | Human Glucagon receptor antagonistic activity shown as inhibition of cAMP production of Glucagon peptide (human glucagon receptor; 1 nM test compound) | Human Glucagon receptor antagonistic activity shown as inhibition of cAMP production of Glucagon peptide (human glucagon receptor; 10 nM test compound) | Human Glucagon receptor antagonistic activity shown as inhibition of cAMP production of Glucagon peptide (human glucagon receptor; 100 nM test compound) | Human Glucagon receptor antagonistic activity shown as inhibition of cAMP production of Glucagon peptide (human glucagon receptor; 1 μM test compound) | Human Glucagon receptor antagonistic activity shown as inhibition of cAMP production of Glucagon peptide (human glucagon receptor; 10 μM test compound) | % degradation of peptidomimetics in 24 h when incubated with DPP-IV enzyme (DPP IV) | half-life at 2 μM (DPP IV) | % degradation of peptidomimetics in 24 h when incubated with human plasma [2] | half-life at 2 μM [2] | % degradation of peptidomimetics in 24 h when incubated with simulated gastric fluid [3] | % degradation of peptidomimetics in 24 h when incubated with simulated intestinal fluid [4] | % degradation of peptidomimetics in 24 h when incubated with liver microsomes [5] | also measured
CCc1cc(OC)ccc1-c1ccc(CC(NC(=O)[C@H](CC(=O)O)NC(=O)[C@H](CO)NC(=O)[C@@H](NC(=O)C(C)(Cc2ccccc2F)NC(=O)[C@@H](NC(=O)CNC(=O)C(CCC#N)NC(=O)C(C)(C)NC(=O)[C@@H](N)Cc2c[nH]cn2)[C@H](C)O)[C@H](C)O)C(=S)NC(CCCc2ccccc2)C(N)=O)cc1 (single isomer, unassigned) [compound 166] | 15.4 ± 0.14 pg/µg/h | 21.2 ± 0.18 pg/µg/h | 35.6 ± 0.17 pg/µg/h | 96 ± 0.02% | 99 ± 0.46% | 99 ± 0.41% | 99 ± 0.66% | 99 ± 0.03% | 19 ± 0.03 pmol/ml/μg prt | 17 ± 0.08 pmol/ml/μg prt | 15 ± 0.01 pmol/ml/μg prt | 14 ± 0.02 pmol/ml/μg prt | 12 ± 0.11 pmol/ml/μg prt | 86% | 9 h | 70% | 8 h | 15% | 41% | 77% | half-life (t1/2) when incubated with simulated gastric fluid [3]: (8) h; half-life (t1/2) when incubated with simulated intestinal fluid [4]: (6) h; half-life at 2 μM [5]: 1 h
CCc1cc(OC)ccc1-c1ccc(CC(NC(=O)[C@H](CC(=O)O)NC(=O)[C@H](CO)NC(=O)[C@@H](NC(=O)[C@H](Cc2ccccc2)NC(=O)[C@@H](NC(=O)CNC(=O)C(CCC#N)NC(=O)C(C)(C)NC(=O)[C@@H](N)Cc2c[nH]cn2)[C@@H](C)O)[C@@H](C)O)C(=O)NC(CCCc2ccccc2)C(N)=O)cc1 (single isomer, unassigned) [compound 29] | 16.3 ± 0.15 pg/µg/h | 22.4 ± 0.21 pg/µg/h | 36.2 ± 0.11 pg/µg/h | 96 ± 0.09% | 99 ± 0.07% | 99 ± 0.04% | 99 ± 0.01% | 99 ± 0.08% | 20 ± 0.06 pmol/ml/μg prt | 18 ± 0.09 pmol/ml/μg prt | 16 ± 0.01 pmol/ml/μg prt | 14 ± 0.03 pmol/ml/μg prt | 12 ± 0.01 pmol/ml/μg prt | 00% | > 24 h | 00% | > 24 h | 00% | 00% | 32% | half-life at 2 μM [3]: > 24 h; half-life at 2 μM [4]: > 24 h; half-life (t1/2) when incubated with liver microsomes [5]: (5) h
CCc1cc(OC)ccc1-c1ccc(CC(NC(=O)[C@H](CC(=O)O)NC(=O)[C@H](CO)NC(=O)[C@@H](NC(=O)[C@H](Cc2ccccc2)NC(=O)[C@@H](NC(=O)CNC(=O)C(CCC#N)NC(=O)C(C)(C)NC(=O)[C@@H](N)Cc2c[nH]cn2)[C@@H](C)O)[C@@H](C)O)C(=O)NC(CCCc2ccccc2C(F)(F)F)C(N)=O)cc1 (single isomer, unassigned) [compound 79] | 16.5 ± 0.12 pg/µg/h | 22.7 ± 0.17 pg/µg/h | 36.5 ± 0.05 pg/µg/h | 62 ± 0.11% | 94 ± 0.09% | 99 ± 0.06% | 99 ± 0.14% | 99 ± 0.19% | 6 ± 0.02 pmol/ml/μg prt | 5 ± 0.03 pmol/ml/μg prt | 2 ± 0.61 pmol/ml/μg prt | 0 pmol/ml/μg prt | 0 pmol/ml/μg prt | 86% |  | 70% |  | 100% | 100% | 100% | half-life (t1/2) when incubated with human plasma [2]: (9) h; half-life at 2 μM [3]: 0.5 h; half-life at 2 μM [4]: 0.5 h; half-life at 2 μM [5]: 0.5 h
CCc1cc(OC)ccc1-c1ccc(CC(NC(=O)[C@H](CC(=O)O)NC(=O)[C@H](CO)NC(=O)[C@@H](NC(=O)C(C)(Cc2ccccc2F)NC(=O)[C@@H](NC(=O)CNC(=O)C(CCC#N)NC(=O)C(C)(C)NC(=O)[C@@H](N)Cc2c[nH]cn2)[C@H](C)O)[C@H](C)O)C(=O)NC(CCCc2ccccc2)C(N)=O)cc1 (single isomer, unassigned) [compound 114] | 16.6 ± 0.41 pg/µg/h | 22.9 ± 0.32 pg/µg/h | 36.6 ± 0.19 pg/µg/h | 82 ± 0.22% | 87 ± 0.12% | 92 ± 0.14% | 99 ± 0.22% | 99 ± 0.26% | 4 ± 0.02 pmol/ml/μg prt | 2 ± 0.15 pmol/ml/μg prt | 0 pmol/ml/μg prt | 0 pmol/ml/μg prt | 0 pmol/ml/μg prt | 00% | > 24 h | 00% | > 24 h | 52% | 00% | 81% | half-life at 2 μM [3]: 4 h; half-life at 2 μM [4]: > 24 h; half-life at 2 μM [5]: 2 h
